Patent US20220306585A1, “PYRAZOLE DERIVATIVES FOR CONTROLLING ARTHROPODS” (Bayer Animal Health GmbH, priority 2019, published 2022)
Converted amounts (≈) assume the structure as drawn.

Columns and labels:
[1] = Measurement of solubility in buffer at pH 6.5; format: physicochemical; settings: aqueous buffer, kinetic from dmso stock; PBS buffer pH 6.5, shaken 24 h at rt, LC-MSMS; read-out: Solubility of example compounds at pH 6.5
Method: Measurement of Solubility in Buffer at pH 6.5 2-4 mg of the test compound are dissolved in DMSO to reach a concentration of 50 g/L (solution A). To 10 μL of this solution 960 μL PBS buffer pH 6.5 are added (final concentration: […]); the mixture is shaken for 24 h at rt in a 96 well plate. An aliquot is centrifuged at 42000 rpm für 30 min. The supernatant is diluted with acetonitrile/water (8:2) 1:10 and 1:1000 resp. This diluted samples are analyzed by LC-MSMS. Calibration: 10 μL of solution A are diluted with 823 μL DMSO (final concentration: 600 μg/mL), which is further diluted with acetonitrile/water 8:2 by a factor of 100 (provides solution B). The calibration curve is obtained from solution B by further diluting with acetonitrile/water 8:2 with target concentrations of 1.2-12-60-600 ng/mL and injecting these four solutions for MS measurement. PBS-Puffer: 6.18 g sodium chloride and 3.96 g sodium dihydrogen phosphate are dissolved in 1 L aqua dist., the pH is adjusted to 6.5 with IN sodium hydroxide.

[2] = Measurement of stability of prodrugs in buffer at pH 7.4; format: physicochemical; settings: PBS buffer pH 7.4, 37° C., HPLC peak area, read-out: % Recovery after 24 h (stability at pH 7.4)
Method: Preparation of the PBS buffer solution pH 7.4: 90 g sodium chloride, 13.61 g potassium dihydrogen phosphate, 83.35 g 1M aqueous sodium hydroxide were dissolved in water. More water was added up to a total volume of 1 L. This solution was diluted 1:10 with water. Eventually, pH was adjusted to pH 7.4 by the addition of phosphoric acid.
Measurement of Stability of Prodrugs in Buffer at pH 7.4
0.15 mg of the test compound were dissolved in 0.1 mL dimethylsulfoxide and 0.4 mL acetonitrile. For complete dissolution, the HPLC vial with the sample solution was shaken and treated with ultrasound. Then, 1.0 mL of PBS buffer solution pH 7.4 was added and the sample was vortexed. The sample solution was analysed by HPLC (method 8) to determine the amount of the test compound at a particular time over a period of 24 h at 37° C. The peak areas, given as percentage of total area, are used for quantification. In addition, the reaction mixture was analysed by method 9 (HPLC-MS) at the final timepoint.

[3] = Degradation of prodrugs and release of parent drug in rat plasma; format: in vitro ADME; settings: male, Hannover-Janvier RjHan, rat plasma (Li-heparin), 37° C., percent area of prodrug at t0
Method: Measurement of Release of Parent Drug in Rat Plasma 1 mg of the test compound was dissolved in 0.5 mL acetonitrile/dimethylsulfoxide 9:1. For complete dissolution the HPLC vial was shaken and treated with ultrasound. 20 μL of this solution were added to 1 mL of rat plasma (Li-heparin plasma, Hannover-Janvier rat, RjHan male) with vortexing at a temperature of 37° C. Aliquots (100 μL each) were taken at 0.17, 0.5, 1, 1.5, 2 and 4 hours. Each aliquot was transferred to a vial containing 300 μL of acetonitrile/citric acid buffer pH 3 8:2. These solutions were centrifuged at 5000 rpm for 10 minutes. The supernatant was analysed by HPLC (Method 8) to determine the amount of the test compound. In addition, the reaction mixture was analysed by method 9 (HPLC-MS) at the final timepoint. Both decrease of the prodrug concentration and increase of parent drug concentration were monitored. All data is given as percent area of the prodrug at to.

SMILES | solubility at 24 h [1] [µg/mL] | recovery at 24 h, 0.1 mg/mL [2] [%] | recovery at 0.17 h, 39 µg/mL [3] [%] | recovery at 0.5 h, 39 µg/mL [3] [%] | recovery at 1 h, 39 µg/mL [3] [%] | recovery at 1.5 h, 39 µg/mL [3] [%] | recovery at 2 h, 39 µg/mL [3] [%] | recovery at 4 h, 39 µg/mL [3] [%]
Cn1nc(C(F)(F)C(F)(F)F)c(C(F)(F)F)c1-n1cc(-c2ccc(Cl)c(C(=O)N(COC(=O)[C@H]3CC[C@H](C(=O)O)CC3)C3(C#N)CC3)c2)cn1 [Example 12, (trans)-4-({[{2-Chloro-5-[2′-methyl-5′-(pentafluoroethyl)-4′-(trifluoromethyl)-2′H-[1,3′-bipyrazol]-4-yl]benzoyl}(1-cyanocyclopropyl)amino]methoxy}carbonyl)cyclohexane-1-carboxylic acid] | 46 (≈ 62.4 µM) | 100 | 91 | 70 | 49 | 33 | 22 | 0
Cn1nc(C(F)(F)C(F)(F)F)c(C(F)(F)F)c1-n1cc(-c2ccc(Cl)c(C(=O)N(COC(=O)CCC(=O)O)C3(C#N)CC3)c2)cn1 [Example 6, 4-{[{2-Chloro-5-[2′-methyl-5′-(pentafluoroethyl)-4′-(trifluoromethyl)-2′H-[1,3′-bipyrazol]-4-yl]benzoyl}(1-cyanocyclopropyl)amino]methoxy}-4-oxobutanoic acid] | 200 (≈ 293 µM) | 90 | – | – | – | – | – | –
Cn1nc(C(F)(F)C(F)(F)F)c(C(F)(F)F)c1-n1cc(-c2ccc(Cl)c(C(=O)N(COC(=O)CC(C)(C)C(=O)O)C3(C#N)CC3)c2)cn1 [Example 2, 4-{[{2-Chloro-5-[2′-methyl-5′-(pentafluoroethyl)-4′-(trifluoromethyl)-2′H-[1,3′-bipyrazol]-4-yl]benzoyl}(1-cyanocyclopropyl)amino]methoxy}-2,2-dimethyl-4-oxobutanoic acid] | 71 (≈ 99.9 µM) | 55 | – | – | – | – | – | –
Cn1nc(C(F)(F)C(F)(F)F)c(C(F)(F)F)c1-n1cc(-c2ccc(Cl)c(C(=O)N(COC(=O)C3(C(=O)O)CC3)C3(C#N)CC3)c2)cn1 [Example 5, 1-({[{2-Chloro-5-[2′-methyl-5′-(pentafluoroethyl)-4′-(trifluoromethyl)-2′H-[1,3′-bipyrazol]-4-yl]benzoyl}(1-cyanocyclopropyl)amino]methoxy}carbonyl)cyclopropane-1-carboxylic acid] | 171 (≈ 246 µM) | 71 | – | – | – | – | – | –
Cn1nc(C(F)(F)C(F)(F)F)c(C(F)(F)F)c1-n1cc(-c2ccc(Cl)c(C(=O)N(COC(=O)c3ccc(C(=O)O)cc3)C3(C#N)CC3)c2)cn1 [Example 10, 4-({[{2-Chloro-5-[2′-methyl-5′-(pentafluoroethyl)-4′-(trifluoromethyl)-2′H-[1,3′-bipyrazol]-4-yl]benzoyl}(1-cyanocyclopropyl)amino]methoxy}carbonyl)benzoic acid] | 31 (≈ 42.4 µM) | 100 | 99 | 98 | 96 | 94 | 92 | 85
Cn1nc(C(F)(F)C(F)(F)F)c(C(F)(F)F)c1-n1cc(-c2ccc(Cl)c(C(=O)N(COC(=O)/C=C/C(=O)O)C3(C#N)CC3)c2)cn1 [Example 7, (2E)-4-{[{2-Chloro-5-[2′-methyl-5′-(pentafluoroethyl)-4′-(trifluoromethyl)-2′H-[1,3′-bipyrazol]-4-yl]benzoyl}(1-cyanocyclopropyl)amino]methoxy}-4-oxobut-2-enoic acid] | – | 96 | 84 | 58 | 26 | 10 | 4 | 0
CC(C)(CC(=O)OCN(C(=O)c1cc(-c2cnn(-c3c(Cl)cc(C(F)(C(F)(F)F)C(F)(F)F)cc3OC(F)(F)F)c2)ccc1Cl)C1(C#N)CC1)C(=O)O [Example 14, 4-{[(2-Chloro-5-{1-[2-chloro-4-(1,1,1,2,3,3,3-heptafluoropropan-2-yl)-6-(trifluoromethoxy)phenyl]-1H-pyrazol-4-yl}benzoyl)(1-cyanocyclopropyl)amino]methoxy}-2,2-dimethyl-4-oxobutanoic acid] | 5 (≈ 6.19 µM) | 63 | – | – | – | – | – | –
